Experimental data published in article PMC3070735, “Uremic Toxins Inhibit Transport by Breast Cancer Resistance Protein and Multidrug Resistance Protein 4 at Clinically Relevant Concentrations” (PLoS ONE, 2011).
Counter-ions that a name gives are not always drawn.

How the values were obtained:
BCRP = target: T1, BCRP (Homo sapiens, UniProt Q9UNQ0); assay: Membrane vesicle transport inhibition assay: BCRP-mediated [3H]-E1S uptake
T1 sequence (Q9UNQ0 1-655): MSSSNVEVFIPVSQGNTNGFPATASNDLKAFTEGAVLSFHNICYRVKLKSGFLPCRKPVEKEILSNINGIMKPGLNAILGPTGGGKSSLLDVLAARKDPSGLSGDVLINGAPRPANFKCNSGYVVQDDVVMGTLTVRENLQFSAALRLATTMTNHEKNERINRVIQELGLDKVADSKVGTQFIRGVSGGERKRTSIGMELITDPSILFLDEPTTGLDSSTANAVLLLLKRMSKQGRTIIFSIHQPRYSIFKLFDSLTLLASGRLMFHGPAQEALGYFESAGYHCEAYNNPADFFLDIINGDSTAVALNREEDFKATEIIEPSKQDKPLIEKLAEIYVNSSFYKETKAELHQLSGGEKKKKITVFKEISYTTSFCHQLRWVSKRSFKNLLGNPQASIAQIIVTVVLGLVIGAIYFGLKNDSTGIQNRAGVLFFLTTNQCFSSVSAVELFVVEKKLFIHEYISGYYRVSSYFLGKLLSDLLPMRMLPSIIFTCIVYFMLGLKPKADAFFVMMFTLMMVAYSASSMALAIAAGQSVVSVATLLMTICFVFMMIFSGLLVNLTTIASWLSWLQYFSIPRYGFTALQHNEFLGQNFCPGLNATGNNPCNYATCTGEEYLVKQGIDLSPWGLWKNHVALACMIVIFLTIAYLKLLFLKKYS
Method: (§1) Human embryonic kidney (HEK293; purchased at American Type Culture Collection, Manassas, VA) cells were cultured in Dulbecco's modified Eagle's medium (Invitrogen life sciences, Breda, the Netherlands) containing 10% (v/v) fetal calf serum (MP Biomedicals, Uden, the Netherlands) at 37°C in a 5% (v/v) CO2 atmosphere. To functionally overexpress MRP4 and BCRP, HEK293 cells were transduced with baculoviruses of human MRP4, BCRP or enhanced yellow fluorescent protein (EYFP), generated via the Bac-to-Bac system (Invitrogen) as previously described. To transduce HEK293 cells, they were cultured in 500 cm^2 flasks until 70% confluence. Subsequently, medium was removed and 10 ml of virus and 25 ml of medium were added and incubated for 30 min at 37°C. Next, 50 ml of medium was added and after 2 h of transduction 5 mM sodium butyrate was added.
(§2) Three days after transduction, cells were harvested and pelleted by centrifugation (30 min at 4,000 x g). Afterwards, the cells were resuspended in ice-cold hypotonic TS buffer (0.5 mM sodium phosphate, 0.1 mM EDTA, pH 7.0) containing protease inhibitors (100 µM phenylmethylsulfonyl fluoride, 5 µg/ml aprotinin, 5 µg/ml leupeptin, 1 µg/ml pepstatin and 1 µg/ml E-64) and shaken for 30 min at 4°C. Cells were then centrifuged at 100,000 x g for 30 min at 4°C. Subsequently, pellet was resuspended in ice-cold isotonic buffer (10 mM Tris-HEPES and 250 mM sucrose, pH 7.4, adjusted with HEPES) supplemented with protease inhibitors and homogenized using a tight fitting Dounce homogenizer followed by centrifugation (1,000 x g, 20 min, 4°C). Afterwards, supernatant was centrifuged at 100,000 x g for 1 h at 4°C. The resulting pellet was resuspended in isotonic buffer and passed through a 27-gauge needle 25 times to obtain crude membrane vesicles. The protein content of samples was determined using the Bio-Rad protein assay (Veenendaal, the Netherlands), according to manufacturers recommendations. Vesicles were frozen in liquid nitrogen and stored at −80°C until use. The orientation of the membrane vesicles was not determined, since ATP-dependent uptake occurs only in inside-out vesicles.
(§3) A rapid filtration technique was used to study the uptake of [^3H]-MTX and [^3H]-E1S into MRP4 or BCRP membrane vesicles, as previously described. In short, 25 µl of TS buffer containing 4 mM ATP, 10 mM MgCl2 and radiolabeled substrate was added to 5 µl of the membrane vesicles (1.5 mg/ml). The transport assay was performed in the absence or presence of various concentrations of uremic toxins to evaluate the inhibitory effects of these compounds on MRP4-mediated [^3H]-MTX uptake and BCRP-mediated [^3H]-E1S uptake. […] Uptake was stopped by placing the samples on ice and the addition of 150 µl ice cold TS buffer. Subsequently, the samples were transferred to a 96 well filter plate (Millipore, Etten-leur, the Netherlands) pre-incubated with TS buffer and filtered using a Multiscreen HTS-Vacuum Manifold filtration device (Millipore). Afterwards, 2 ml of scintillation liquid was added to each filter and radioactivity was determined using liquid scintillation counting. As negative controls ATP was substituted for AMP and EYFP-membrane vesicles were used. Each experiment was performed in triplicates.
Statistics were performed using GraphPad Prism 5.02 via an unpaired t test or a Kruskal-Wallis test followed by a Dunn's Multiple Comparison test. Differences between groups were considered to be statistically significant when p<0.05. The mean IC50 and IC20 values were calculated from the inhibition curves used for the Dixon analysis and to determine the inhibition constant (Ki) from the Dixon plots. Transport inhibition studies were performed in triplicate and repeated at least three times.

[1] = design: method as in PMID 8832487, PMID 10052856; settings: isolated perfused rat kidney, secretory transport; cited from earlier work
MRP4 = target: T2, MRP4 (Homo sapiens, UniProt O15439); assay: Membrane vesicle transport inhibition assay: MRP4-mediated [3H]-MTX uptake
T2 sequence (O15439 1-1325): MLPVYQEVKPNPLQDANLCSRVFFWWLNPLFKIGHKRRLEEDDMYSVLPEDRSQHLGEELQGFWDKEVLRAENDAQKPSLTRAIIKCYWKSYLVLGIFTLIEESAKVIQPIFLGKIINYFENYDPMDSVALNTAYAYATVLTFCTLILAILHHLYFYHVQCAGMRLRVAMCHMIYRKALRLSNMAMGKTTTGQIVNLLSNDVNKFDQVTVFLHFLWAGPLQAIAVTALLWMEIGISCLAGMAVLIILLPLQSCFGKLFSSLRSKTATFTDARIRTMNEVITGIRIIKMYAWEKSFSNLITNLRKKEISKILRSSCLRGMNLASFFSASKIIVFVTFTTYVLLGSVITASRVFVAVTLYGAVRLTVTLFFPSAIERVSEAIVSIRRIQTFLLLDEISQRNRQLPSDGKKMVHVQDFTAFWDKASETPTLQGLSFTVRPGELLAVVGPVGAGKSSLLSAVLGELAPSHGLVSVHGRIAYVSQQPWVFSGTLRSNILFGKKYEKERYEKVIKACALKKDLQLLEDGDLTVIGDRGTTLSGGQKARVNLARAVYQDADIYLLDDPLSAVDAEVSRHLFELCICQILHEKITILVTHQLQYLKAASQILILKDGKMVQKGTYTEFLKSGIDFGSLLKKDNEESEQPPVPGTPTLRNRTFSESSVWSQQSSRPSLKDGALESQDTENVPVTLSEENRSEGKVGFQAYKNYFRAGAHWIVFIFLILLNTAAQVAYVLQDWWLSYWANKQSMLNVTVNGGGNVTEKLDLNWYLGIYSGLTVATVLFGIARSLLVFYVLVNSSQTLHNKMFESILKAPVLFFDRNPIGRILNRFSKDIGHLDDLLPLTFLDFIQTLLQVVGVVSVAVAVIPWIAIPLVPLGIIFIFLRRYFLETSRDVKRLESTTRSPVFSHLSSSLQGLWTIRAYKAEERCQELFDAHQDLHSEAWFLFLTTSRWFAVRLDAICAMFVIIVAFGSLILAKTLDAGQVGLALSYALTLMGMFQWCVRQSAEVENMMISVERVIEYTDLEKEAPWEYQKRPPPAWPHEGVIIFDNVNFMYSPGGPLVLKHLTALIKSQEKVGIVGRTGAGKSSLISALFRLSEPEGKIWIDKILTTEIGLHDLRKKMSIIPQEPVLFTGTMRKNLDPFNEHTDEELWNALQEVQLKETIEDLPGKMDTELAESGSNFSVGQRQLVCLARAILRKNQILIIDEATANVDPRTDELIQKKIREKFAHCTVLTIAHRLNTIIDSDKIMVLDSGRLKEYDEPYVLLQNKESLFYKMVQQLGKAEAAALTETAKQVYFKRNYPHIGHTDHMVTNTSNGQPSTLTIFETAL
Method: as §1
as §2, with “Subsequently, pellet was resuspended in ice-cold isotonic buffer (10 mM Tris-HEPES and 250 mM sucrose, pH 7.4, adjusted with HEPES) supplemented with protease inhibitors and homogenized using a tight fitting Dounce homogenizer followed by centrifugation (1,000 x g, 20 min, 4°C).” left out, “The resulting pellet was resuspended in isotonic buffer and passed through a 27-gauge needle 25 times to obtain crude membrane vesicles.” left out
as §3
Differences between groups were considered to be statistically significant when p<0.05. The mean IC50 and IC20 values were calculated from the inhibition curves used for the Dixon analysis and to determine the inhibition constant (Ki) from the Dixon plots. Transport inhibition studies were performed in triplicate and repeated at least three times.

N.[3H]C1c2cc(OS(=O)(=O)O)ccc2[C@H]2CC[C@]3(C)C(=O)CC[C@H]3[C@@H]2C1[3H] (stereo partly drawn) [[^3H]-E1S, [6′,7′-^3H(n)]-estrone-sulfate ammonium salt, reference compound]
ATP-dependent uptake compared to EYFP controls (BCRP; BCRP-overexpressing vesicles vs EYFP controls): 24 fold | ATP-dependent uptake, average rate (BCRP; BCRP-overexpressing vesicles, no inhibitor): 15.5 pmol/mg/min

Cc1ccc(C(=O)NCC(=O)O)cc1 [4-methyl hippuric acid]
Level in kidney tissue compared to the perfusate [1]: 600 times

CN(Cc1cnc2nc(N)nc(N)c2n1)c1ccc(C(=O)N[C@@H](CCC(=O)O)C(=O)O)cc1 [[^3H]-MTX, [3′,5′,7′-^3H(n)]-methotrexate disodium salt, reference compound]
ATP-dependent uptake compared to EYFP vesicles (MRP4; MRP4-overexpressing vesicles vs EYFP vesicles): 11 fold | ATP-dependent uptake, average rate (MRP4; MRP4-overexpressing vesicles, no inhibitor): 1.3 pmol/mg/min

Cc1ccccc1C(=O)NCC(=O)O [2-methyl hippuric acid]
Level in kidney tissue compared to the perfusate [1]: 175 times
